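Cultured in 96-well plates, cells were exposed to test compound for 48 hours across five concentrations. Abbreviation: GI50, concentration required for 50% inhibition of growth.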 Activity calls are given as the source filed them. No stated cut-off is given here; in the data, active = GI50 up to about 1.1 µM and inactive = higher.
Tests used:
Assay in all cases: inhibition of tumour cell growth, NCI panel, 48 h
786-0 = tested on: 786-0
A498 = tested on: A498
A549 = tested on: A549
BT-549 = tested on: BT-549
CAKI-1 = tested on: CAKI-1
DU-145 = tested on: DU-145
HCC 2998 = tested on: HCC 2998
HL-60 = tested on: HL-60
NCI-H23 = tested on: NCI-H23
NCI/ADR-RES = tested on: NCI/ADR-RES
OVCAR-3 = tested on: OVCAR-3
OVCAR-8 = tested on: OVCAR-8
SF-268 = tested on: SF-268
SF-295 = tested on: SF-295
SK-MEL-2 = tested on: SK-MEL-2
UACC-257 = tested on: UACC-257
UO-31 = tested on: UO-31
Malme-3M = tested on: Malme-3M
SR = tested on: SR

Measured: GI50

O=c1cccc(C2CC(CO)C3CCCCN3C2)[nH]1 (stereo not given)
inactive: 786-0 > 100 µM | A498 > 100 µM | A549 > 100 µM | BT-549 > 100 µM | CAKI-1 > 100 µM | DU-145 > 100 µM | HCC 2998 > 100 µM | HL-60 > 100 µM | NCI-H23 > 100 µM | NCI/ADR-RES > 100 µM | OVCAR-3 > 100 µM | OVCAR-8 > 100 µM | SF-268 > 100 µM | SF-295 > 100 µM | SK-MEL-2 > 100 µM | UACC-257 > 100 µM | UO-31 > 100 µM

COc1ccc(/N=C2\C(=N/c3ccc(OC)cc3)N(S(=O)(=O)c3ccccc3)C(=S)N2c2ccccc2)cc1
inactive: 786-0 > 100 µM | A549 > 100 µM | BT-549 > 100 µM | CAKI-1 > 100 µM | DU-145 > 100 µM | HCC 2998 > 100 µM | Malme-3M > 100 µM | NCI-H23 > 100 µM | NCI/ADR-RES > 100 µM | OVCAR-3 > 100 µM | OVCAR-8 > 100 µM | SF-268 > 100 µM | SF-295 > 100 µM | SK-MEL-2 > 100 µM | SR > 100 µM | UACC-257 > 100 µM | UO-31 > 100 µM

CCOC(=O)CNC(=O)CNC(=O)CNC(=O)CNNc1c(OCc2ccccc2)c(=O)c1=O
inactive: 786-0 > 100 µM | A498 > 100 µM | A549 > 100 µM | BT-549 > 100 µM | CAKI-1 > 100 µM | DU-145 > 100 µM | HCC 2998 > 100 µM | Malme-3M > 100 µM | NCI-H23 > 100 µM | NCI/ADR-RES > 100 µM | OVCAR-3 > 100 µM | OVCAR-8 > 100 µM | SF-268 > 100 µM | SK-MEL-2 > 100 µM | UACC-257 > 100 µM | UO-31 > 100 µM

CN(CCc1ccc(Br)cc1)CCN1CCCCC1
inactive: 786-0 30.1 µM | A498 21 µM | A549 43.4 µM | BT-549 24.8 µM | CAKI-1 43.2 µM | DU-145 99.5 µM | HCC 2998 33.7 µM | Malme-3M 22.8 µM | NCI-H23 31.9 µM | NCI/ADR-RES 46.5 µM | OVCAR-3 36.6 µM | OVCAR-8 31.4 µM | SF-268 65.3 µM | SF-295 25.1 µM | SK-MEL-2 24.4 µM | UACC-257 36.3 µM | UO-31 36.1 µM

COC12C=CC(CC1)C1C(=O)c3c(C)c(C)n(C)c3C(=O)C12 (stereo not given)
inactive: 786-0 > 100 µM | A498 > 100 µM | BT-549 > 100 µM | DU-145 > 100 µM | Malme-3M > 100 µM | NCI-H23 99.5 µM | NCI/ADR-RES > 100 µM | OVCAR-3 > 100 µM | OVCAR-8 > 100 µM | SF-268 > 100 µM | SF-295 > 100 µM | SK-MEL-2 > 100 µM | SR 27 µM | UACC-257 35.6 µM | UO-31 36.1 µM

CC(=O)OCC1OC(OC2CC3C(C)(C)C(=O)CC[C@]3(C)C3CC[C@]45C[C@]4(CCC5[C@@H](C)CC(O)C(O)C(C)(C)O)[C@]23C)C(O)C(O)C1O (stereo not given in full)
inactive: 786-0 13.6 µM | A549 17.3 µM | BT-549 12.9 µM | CAKI-1 17.1 µM | DU-145 17.1 µM | HCC 2998 10 µM | HL-60 2.25 µM | Malme-3M 14.1 µM | NCI-H23 17.5 µM | NCI/ADR-RES 18.3 µM | OVCAR-3 12.7 µM | OVCAR-8 13.5 µM | SF-268 10.1 µM | SF-295 14.1 µM | SK-MEL-2 4.93 µM | SR 4.35 µM | UACC-257 11.2 µM | UO-31 18.2 µM

COC1CCON1C(=O)c1ccccc1 (stereo not given)
inactive: 786-0 > 10 µM | A549 > 10 µM | BT-549 > 10 µM | CAKI-1 > 10 µM | DU-145 > 10 µM | HCC 2998 > 10 µM | HL-60 > 10 µM | Malme-3M > 10 µM | NCI-H23 > 10 µM | NCI/ADR-RES > 10 µM | OVCAR-3 > 10 µM | OVCAR-8 > 10 µM | SF-268 > 10 µM | SF-295 > 10 µM | SK-MEL-2 > 10 µM | SR > 10 µM | UACC-257 > 10 µM | UO-31 > 10 µM

CCOC(=O)/C(C(=O)Nc1cccc(C(F)(F)F)c1)=C(/N)N1CCOCC1
inactive: 786-0 > 100 µM | A498 > 100 µM | A549 > 100 µM | BT-549 > 100 µM | CAKI-1 > 100 µM | DU-145 > 100 µM | HCC 2998 > 100 µM | HL-60 > 100 µM | Malme-3M > 100 µM | NCI-H23 > 100 µM | NCI/ADR-RES > 100 µM | OVCAR-3 > 100 µM | OVCAR-8 > 100 µM | SF-268 > 100 µM | SF-295 > 100 µM | SK-MEL-2 > 100 µM | UACC-257 > 100 µM

O=c1oc2ccc(Cl)cc2cc1C1=CSC2=NCCN12
inactive: 786-0 18.4 µM | A549 40.7 µM | BT-549 19.7 µM | CAKI-1 44.5 µM | DU-145 19.3 µM | HCC 2998 14 µM | HL-60 21.7 µM | Malme-3M 31.1 µM | NCI-H23 21.4 µM | NCI/ADR-RES 44.4 µM | OVCAR-3 18.4 µM | OVCAR-8 19.9 µM | SF-268 17.8 µM | SF-295 23.3 µM | SK-MEL-2 23.3 µM | SR 17.1 µM | UACC-257 37.7 µM | UO-31 20.7 µM

Nc1cc(O)c2c(c1O)C(=O)C=CC2=O
inactive: 786-0 7.89 µM | A498 22.2 µM | A549 19.6 µM | BT-549 16.7 µM | CAKI-1 18.6 µM | DU-145 18.2 µM | HCC 2998 9.31 µM | HL-60 2.21 µM | Malme-3M 2.67 µM | NCI-H23 8.99 µM | NCI/ADR-RES 10 µM | OVCAR-3 2.64 µM | OVCAR-8 8.24 µM | SF-268 22.9 µM | SF-295 17.3 µM | SK-MEL-2 14 µM | UACC-257 14.5 µM | UO-31 10.9 µM

COc1nc(=O)n(C2CC(F)C(CO)O2)cc1C (stereo not given)
inactive: 786-0 > 100 µM | A549 > 100 µM | BT-549 > 100 µM | CAKI-1 > 100 µM | DU-145 > 100 µM | HCC 2998 > 100 µM | HL-60 > 100 µM | Malme-3M > 100 µM | NCI-H23 > 100 µM | NCI/ADR-RES > 100 µM | OVCAR-3 > 100 µM | OVCAR-8 > 100 µM | SF-268 > 100 µM | SF-295 > 100 µM | SK-MEL-2 > 10 µM | SR > 100 µM | UACC-257 > 100 µM | UO-31 > 100 µM

CCOC(=O)c1c(NS(=O)(=O)c2ccc(C)cc2)sc2c1CCCC2
inactive: 786-0 35.2 µM | A498 36.1 µM | A549 24.5 µM | BT-549 31.7 µM | CAKI-1 38.9 µM | DU-145 33.6 µM | HL-60 42.7 µM | NCI-H23 18.1 µM | NCI/ADR-RES 27 µM | OVCAR-3 15 µM | OVCAR-8 35.7 µM | SF-268 26.1 µM | SF-295 28 µM | SK-MEL-2 17.3 µM | UACC-257 35 µM | UO-31 21.1 µM

Nc1cc2nc(-c3ccccc3)cn2cn1
inactive: 786-0 > 100 µM | A498 27.9 µM | A549 > 100 µM | BT-549 > 100 µM | CAKI-1 89.9 µM | DU-145 > 100 µM | HL-60 > 100 µM | Malme-3M 20.2 µM | NCI-H23 > 100 µM | NCI/ADR-RES > 100 µM | OVCAR-3 > 100 µM | OVCAR-8 > 100 µM | SF-268 > 100 µM | SF-295 > 100 µM | SK-MEL-2 > 100 µM | UO-31 32.4 µM

COc1cc(-c2nc(SC)nc3c2CCc2ccccc2-3)cc(OC)c1OC
inactive: 786-0 50.6 µM | A498 > 100 µM | A549 > 100 µM | BT-549 > 100 µM | DU-145 79.8 µM | HCC 2998 > 100 µM | HL-60 > 100 µM | NCI-H23 > 100 µM | NCI/ADR-RES 36.3 µM | OVCAR-3 95.1 µM | OVCAR-8 50.6 µM | SF-268 91.2 µM | SF-295 91 µM | SK-MEL-2 > 100 µM | UACC-257 90.8 µM | UO-31 46.3 µM

Cc1ccc2nc(CN(CCO)CCO)cc(=O)n2c1
inactive: 786-0 > 100 µM | A549 > 100 µM | BT-549 > 100 µM | CAKI-1 > 100 µM | DU-145 > 100 µM | HCC 2998 > 100 µM | HL-60 > 100 µM | Malme-3M > 100 µM | NCI-H23 > 100 µM | NCI/ADR-RES > 100 µM | OVCAR-3 > 100 µM | OVCAR-8 > 100 µM | SF-268 > 100 µM | SF-295 > 100 µM | SK-MEL-2 > 100 µM | SR > 100 µM | UACC-257 > 100 µM | UO-31 > 100 µM

Oc1ccc(O)c(Sc2nnc(CCCCCCCCc3nnc(Sc4cc(O)ccc4O)o3)o2)c1
inactive: 786-0 19 µM | A498 > 100 µM | A549 > 100 µM | BT-549 74.8 µM | CAKI-1 28.8 µM | DU-145 > 100 µM | HCC 2998 75.5 µM | Malme-3M 57.3 µM | NCI-H23 > 100 µM | NCI/ADR-RES > 100 µM | SF-268 73.6 µM | SF-295 > 100 µM | SK-MEL-2 > 100 µM | UACC-257 > 100 µM | UO-31 16.6 µM

Reference: ChEMBL document CHEMBL1201862, “PubChem BioAssay data set” (2004)
